In patent publication US20130149362A1, “TREATMENT PRODUCT AND METHOD” (priority 2007, published 2013):

Test: penetration of retinal into the skin (topical application)
Details: retinal by itself

penetration rate: about 2%
SMILES: CC1=C(/C=C/C(C)=C/C=C/C(C)=C/C=O)C(C)(C)CCC1 [Retinal]
